These results are taken from patent US20250295619A1, “Use of Salvianolic Acid E in the Preparation of Drugs Targeting Senescent Cells, Inhibiting Tumors or Extending Lifespan” (Shanghai Institute of Nutrition and Health, Chinese Academy …, priority 2024, published 2025).

This assay has as its system aged C57BL/6 mice. Kind of assay: Lifespan study in aged C57BL/6 mice. The following applies: administered from 24-27 months of age, every two weeks. It counts as in vivo, mouse. As for the experimental part: Starting at 24 to 27 months of age, C57BL/6 mice received intraperitoneal administration of vehicle or SAE every two weeks (n=80 for vehicle group; n=91 for SAE group). The median survival of animals in each group was calculated and indicated. ****, P<0.0001.
Starting at 24 to 27 months of age, C57BL/6 mice received intraperitoneal administration of vehicle or SAE every two weeks (n=80 for vehicle group; n=91 for SAE group). The median lifetime survival of animals in each group was calculated and indicated. ****, P<0.0001.
For the cell transplantation study, the inventors obtained […] male C57BL/6 mice by serial rearing in the SPF animal platform, with 4 to 5 animals per cage. The inventors first sorted the mice by body weight from low to high, and then selected mice with similar body weights. Next, the mice were assigned to senescence (SEN) or control (CTRL) transplant treatment at each interval using a random number generator, while the middle mice were assigned to the other treatment, so that the body weights of the senescence and control transplant mice were matched. One month after cell transplantation, when the mice were 18 months old, physical function tests were performed. After that, no further testing was done on the mice other than checking their cages. The earliest deaths occurred approximately 2 months after the last physical function test. […]

Consider `O=C(/C=C/c1ccc(O)c(O)c1/C(=C\c1ccc(O)c(O)c1)C(=O)O[C@H](Cc1ccc(O)c(O)c1)C(=O)O)O[C@H](Cc1ccc(O)c(O)c1)C(=O)O` [SAE, salvianolic acid E], for which the “risk of death HR (SAE group/vehicle group)” value turned out to be 0.3249.
